Data reported in the NIST ThermoML archive (doi:10.1021/je060271a).
Where “and” joins values, the source holds several entries; their conditions need not be identical. Equal entries are not always repeated.

Conditions: 283.15 K, Liquid, Vibrating tube method

CCCCCC(=O)OCC(COC(=O)CCCCC)(COC(=O)CCCCC)COC(=O)CCCCC [pentaerythritol tetrahexanoate]
Conditions	mass density
6771 kPa	1008.1 kg/m3
6771.2 kPa	1008 kg/m3
6771.4 kPa	1008.1 kg/m3 and 1008 kg/m3
6771.6 kPa	1008.1 kg/m3
6771.7 kPa	1008.1 kg/m3
6771.9 kPa	1008 kg/m3
6772.1 kPa	1008.1 kg/m3
6772.3 kPa	1008.1 kg/m3
6772.4 kPa	1008 kg/m3 and 1008.1 kg/m3 and 1008.2 kg/m3
6772.6 kPa	1008.1 kg/m3 and 1008 kg/m3
6772.8 kPa	1008.1 kg/m3 and 1007.9 kg/m3
6772.9 kPa	1008.1 kg/m3
6773.1 kPa	1008 kg/m3 and 1008.2 kg/m3
6773.3 kPa	1008 kg/m3 and 1008.2 kg/m3
6773.5 kPa	1008 kg/m3 and 1008.1 kg/m3
6773.6 kPa	1008.1 kg/m3 and 1008.2 kg/m3 and 1008 kg/m3
6773.7 kPa	1008 kg/m3
6773.8 kPa	1008.1 kg/m3 and 1008 kg/m3
6774.1 kPa	1008.1 kg/m3
6774.2 kPa	1008.1 kg/m3
6774.3 kPa	1008.1 kg/m3
6774.5 kPa	1008.2 kg/m3 and 1008 kg/m3 and 1008.1 kg/m3
6774.7 kPa	1008.1 kg/m3 and 1008.2 kg/m3 and 1008 kg/m3
6774.8 kPa	1007.9 kg/m3 and 1008.1 kg/m3 and 1008 kg/m3
6775 kPa	1008.1 kg/m3 and 1007.9 kg/m3
6775.1 kPa	1008.2 kg/m3 and 1008.1 kg/m3
6775.2 kPa	1008.1 kg/m3 and 1008.2 kg/m3
6775.4 kPa	1008.2 kg/m3 and 1008 kg/m3
6776.1 kPa	1008.1 kg/m3
6776.2 kPa	1008.1 kg/m3
6776.6 kPa	1008.2 kg/m3 and 1008.1 kg/m3
6776.8 kPa	1008.1 kg/m3 and 1008.2 kg/m3 and 1008 kg/m3
6776.9 kPa	1008.2 kg/m3 and 1008.1 kg/m3
6777.1 kPa	1008.1 kg/m3
6777.3 kPa	1008.1 kg/m3
6777.5 kPa	1008.1 kg/m3 and 1008 kg/m3
6777.6 kPa	1008.1 kg/m3 and 1008 kg/m3
6777.8 kPa	1008.1 kg/m3 and 1008.2 kg/m3 and 1008 kg/m3
6778 kPa	1008.2 kg/m3
6778.1 kPa	1008 kg/m3 and 1008.1 kg/m3 and 1008.2 kg/m3
6778.3 kPa	1008.1 kg/m3 and 1008.2 kg/m3
6778.5 kPa	1008.1 kg/m3 and 1008 kg/m3 and 1007.9 kg/m3
6778.7 kPa	1008 kg/m3 and 1008.1 kg/m3
6779 kPa	1008.1 kg/m3
6779.2 kPa	1008 kg/m3 and 1008.1 kg/m3
6779.3 kPa	1008.2 kg/m3
6779.5 kPa	1008 kg/m3 and 1008.1 kg/m3
6779.7 kPa	1008.1 kg/m3 and 1008.2 kg/m3
6779.8 kPa	1008.2 kg/m3
6779.9 kPa	1008 kg/m3 and 1008.1 kg/m3
6780 kPa	1008.1 kg/m3 [middle of 4 runs]
6780.2 kPa	1008.1 kg/m3 and 1008 kg/m3
6780.3 kPa	1008 kg/m3
6780.4 kPa	1008 kg/m3 and 1008.2 kg/m3 and 1008.1 kg/m3
6780.5 kPa	1008.1 kg/m3 and 1008 kg/m3
6780.6 kPa	1008.1 kg/m3
6780.7 kPa	1008 kg/m3 and 1008.2 kg/m3 and 1008.1 kg/m3
6780.8 kPa	1008.2 kg/m3 and 1008.1 kg/m3
6780.9 kPa	1008.1 kg/m3
6781 kPa	1008.1 kg/m3 and 1008 kg/m3 and 1008.2 kg/m3
6781.1 kPa	1008.1 kg/m3
6781.2 kPa	1008.1 kg/m3
6781.3 kPa	1008.1 kg/m3
6781.4 kPa	1008.1 kg/m3
6781.5 kPa	1008.1 kg/m3
6781.7 kPa	1007.9 kg/m3
6781.9 kPa	1008.1 kg/m3 and 1008 kg/m3
6782 kPa	1008.2 kg/m3
6782.2 kPa	1008.2 kg/m3 and 1008.1 kg/m3 and 1008 kg/m3
6782.4 kPa	1007.9 kg/m3 and 1008.2 kg/m3 and 1008.1 kg/m3
6782.6 kPa	1008.1 kg/m3 and 1008 kg/m3
6782.7 kPa	1008.2 kg/m3 and 1008.1 kg/m3 and 1008 kg/m3
6782.9 kPa	1008.1 kg/m3 and 1008 kg/m3
6783.1 kPa	1007.9 kg/m3 and 1008.1 kg/m3 and 1008 kg/m3
6783.2 kPa	1008 kg/m3
6783.3 kPa	1008.1 kg/m3 and 1008 kg/m3
6783.4 kPa	1008.1 kg/m3 [middle of 4 runs]
6783.6 kPa	1008 kg/m3 and 1008.1 kg/m3 and 1008.2 kg/m3
6783.8 kPa	1008.1 kg/m3
6784.1 kPa	1008 kg/m3
6784.3 kPa	1008.1 kg/m3
6784.5 kPa	1008 kg/m3
6784.6 kPa	1008.1 kg/m3
6784.7 kPa	1008 kg/m3 and 1008.1 kg/m3
6784.8 kPa	1008.1 kg/m3
6785 kPa	1008.1 kg/m3 and 1008.2 kg/m3
6785.1 kPa	1008.1 kg/m3 and 1008 kg/m3
6785.2 kPa	1008.2 kg/m3 and 1008.1 kg/m3
6785.3 kPa	1008.1 kg/m3 and 1008 kg/m3
6785.5 kPa	1007.9 kg/m3
6785.7 kPa	1008 kg/m3 and 1008.2 kg/m3 and 1008.1 kg/m3
6785.8 kPa	1008.1 kg/m3 and 1008 kg/m3 and 1008.2 kg/m3
6786 kPa	1008.1 kg/m3 and 1008 kg/m3
6786.2 kPa	1008.1 kg/m3 and 1008.2 kg/m3
6786.3 kPa	1008.1 kg/m3
6786.4 kPa	1008.1 kg/m3
6786.5 kPa	1008 kg/m3 and 1008.2 kg/m3 and 1008.1 kg/m3
6786.7 kPa	1008 kg/m3 and 1008.1 kg/m3
6786.9 kPa	1008 kg/m3 and 1008.1 kg/m3
6787 kPa	1008 kg/m3
6787.2 kPa	1008.1 kg/m3 and 1008 kg/m3
6787.4 kPa	1008 kg/m3 and 1008.2 kg/m3 and 1008.1 kg/m3
6787.7 kPa	1008.1 kg/m3
6787.9 kPa	1008 kg/m3 and 1008.1 kg/m3
6788.1 kPa	1008.2 kg/m3 and 1008.1 kg/m3
6788.2 kPa	1008 kg/m3 and 1008.1 kg/m3
6788.4 kPa	1008.1 kg/m3
6789.1 kPa	1008.2 kg/m3
6789.2 kPa	1008 kg/m3
6789.4 kPa	1008 kg/m3
6789.5 kPa	1008 kg/m3 and 1008.2 kg/m3 and 1008.1 kg/m3
6789.6 kPa	1008.2 kg/m3 and 1008.1 kg/m3 and 1008 kg/m3
6789.7 kPa	1008.1 kg/m3 and 1008 kg/m3
6789.8 kPa	1008 kg/m3 and 1008.1 kg/m3 and 1008.2 kg/m3
6789.9 kPa	1008 kg/m3
6795.1 kPa	1008.1 kg/m3
6804.6 kPa	1008.1 kg/m3
6816.7 kPa	1008 kg/m3
6826.4 kPa	1008 kg/m3
6835.7 kPa	1008.2 kg/m3
6845.5 kPa	1008.1 kg/m3
6856.1 kPa	1008.3 kg/m3
6867.3 kPa	1008.1 kg/m3
6879.6 kPa	1008.1 kg/m3
6889.1 kPa	1008.1 kg/m3
6899.3 kPa	1008.1 kg/m3
6909.5 kPa	1008.1 kg/m3
6921.6 kPa	1008.2 kg/m3
6931.7 kPa	1008.2 kg/m3
6941.9 kPa	1008.1 kg/m3
6954.2 kPa	1008.3 kg/m3
6964.7 kPa	1008.2 kg/m3
6975.4 kPa	1008.1 kg/m3
6988.1 kPa	1008.1 kg/m3
6998.9 kPa	1008.2 kg/m3
7009.8 kPa	1008.1 kg/m3
7020.4 kPa	1008.2 kg/m3
7033.3 kPa	1008.2 kg/m3
7043.8 kPa	1008.3 kg/m3
7054.9 kPa	1008.2 kg/m3
7065.4 kPa	1008.3 kg/m3
7078.4 kPa	1008.2 kg/m3
7089.3 kPa	1008.3 kg/m3
7100.3 kPa	1008.3 kg/m3
7113.3 kPa	1008.3 kg/m3
